The subject of one assay is C. albicans. Kind of assay: MIC, visible-light-activated MMs and conventional antifungals, C. albicans. To be noted: Candida albicans, read-out: MIC of MM. It is filed as cell-based, Candida albicans (ATCC 18804). A digest of the protocol: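 C. albicans suspensions (~10^4 CFU/mL in saline, CLSI) incubated 30 min in the dark with MMs, then irradiated with stirring at 405 nm, 292 mW cm^−2 for 5 min (87.6 J cm^−2). Cells then grown in MOPS-buffered RPMI 1640 (pH 7.0) at 30 °C for 48 h; MIC is lowest concentration with no visible growth; conventional antifungals tested likewise.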

The test system of a further assay is P. aeruginosa. Kind of assay: MIC, P. aeruginosa. Type of assay: cell-based, Pseudomonas aeruginosa. To be noted: Pseudomonas aeruginosa, read-out: MIC of MM. A digest of the protocol: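 Cell suspensions were exposed to compound at 0.3125-40 μM for 30 min in the dark, with agitation, at 30 or 37 °C depending on strain. Each sample was then irradiated with 405 nm light at 146 mW cm^−2 for 5 min (43.8 J cm^−2), inoculated into MHB and incubated overnight. MIC was read as the lowest concentration without visible growth, alongside non-irradiated controls.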

A further assay has as its system S. epidermidis. The assay is described as follows: MIC, S. epidermidis. Type of assay: cell-based. To be noted: Staphylococcus epidermidis, read-out: MIC of MM. Here is the method: The appropriate volume of an MM stock at 8 mM necessary to achieve a concentration ranging from 0.3125 to 40 μM was pipetted into a 2 mL microcentrifuge tube to which 1 mL of cell suspension prepared as previously described was added. Corresponding negative controls (DMSO only) were prepared in the same way. The mixture was gently mixed by pipetting and incubated in the dark at 30 or 37 ° C, depending on the strain, for 30 min with agitation (220 rpm). Afterward, MM- or DMSO-treated cells were dispensed in one well of a 24-well plate positioned in the center of the light beam (405 nm LED Light, Prizmatix, UHP—F-5-405) placed at the appropriate distance necessary to achieve the desired light intensity of 304 mW cm-2, 146 mW cm2 or 87 mW cm2, as measured with a handheld digital power meter console coupled to an S415C thermal power sensor head (Thorlabs, Newton, MA, USA). The temperature during irradiation was monitored using a thermocouple probe (Model SC-TT-K-30-36-PP; Omega Engineering, Inc., Stanford, CT, USA). Samples were agitated during irradiation. Dark controls were prepared as previously described except that no irradiation was provided. […]

For assay [1], the system named is Gram-negative and Gram-positive strains. Kind of assay: MIC comparison Gram-positive versus Gram-negative strains (incl. MRSA). Type of assay: cell-based. To be noted: FIG. 33C. The source says: The dotted line denotes the limit of detection of the method. Results are the means of at least 3 biological replicas #standard error of the mean. (FIG. 33B) MIC value of MM 1, MM 5, MM 6 in different Gram-negative and Gram-positive strains, including MRSA. Bars represent the results from at least 3 biological replicas. Unless otherwise noted, results for MM and DMSO are always reported in the presence of light. (FIG. 33C) Box and whiskers plot (median values with min/max range) of the MIC values of MM 1, MM 5, and MM 6 among the Gram-negative and Gram-positive strains examined in this study. * P<0.05; ns, not significant.
The appropriate volume of an MM stock at 8 mM necessary to achieve a concentration ranging from 0.3125 to 40 μM was pipetted into a 2 mL microcentrifuge tube to which 1 mL of cell suspension prepared as previously described was added. Corresponding negative controls (DMSO only) were prepared in the same way. […] Afterward, MM- or DMSO-treated cells were dispensed in one well of a 24-well plate positioned in the center of the light beam (405 nm LED Light, Prizmatix, UHP—F-5-405) placed at the appropriate distance necessary to achieve the desired light intensity of 304 mW cm-2, 146 mW cm2 or 87 mW cm2, as measured with a handheld digital power meter console coupled to an S415C thermal power sensor head (Thorlabs, Newton, MA, USA). […]

The test system of assay [2] is A. baumannii, E. coli, P. aeruginosa, S. aureus. The assay is described as follows: Resistance development / cross-resistance in bacteria (serial passaging). Type of assay: cell-based. As for the experimental part: Isolation of MM-resistant mutants of E. coli, A. baumannii, P. aeruginosa, and S. aureus was attempted by irradiating cell suspensions treated with 4×MIC of the different MMs for 5 min at 146 mW cm^−2 (43.8 J cm^−2). No visible colonies could be obtained for any of the strains tested.
For resistance development by sequential passaging (Ling et al., 2015), A. baumannii, E. coli, P. aeruginosa, and S. aureus cells in exponential phase were collected and processed as described for MIC determination. Cells were incubated at 37 ° C for 24 h after which they were inspected for growth. Cells able to grow at 0.5×MIC were collected and re-challenged with a range of MM concentrations and then irradiated. The antibiotics ciprofloxacin and gentamicin (for Gram-negatives) or ciprofloxacin and tobramycin (for S. aureus) were used as controls.

The next assay deals with E. coli. The assay is described as follows: Tetracycline uptake. Type of assay: cell-based, Escherichia coli. The following applies: 0.5×MIC MM pre-treatment, vs DMSO. Here is the method:
The ability of pre-treatment with subinhibitory concentrations of MMs to potentiate antibiotic killing was further evaluated by monitoring the fluorescence of tetracycline uptake. […] Irradiated cell suspensions were then collected, and tetracycline (128 μg mL^−1 final concentration) was added. A volume of 100 μL per well of tetracycline amended cell suspension was transferred to a black 96-well plate and fluorescence was read every 5 min for 60 min at room temperature in a microplate reader (Ex: 405 nm, Em: 535 nm) (BioTek Instruments Inc, Winooski, VT, USA). Results were expressed as RFU corrected for fluorescence in the absence of cells.

Setting [3] is: Escherichia coli, read-out: MIC of MM in antibiotic-resistant E. coli.
[4] abbreviates: Staphylococcus aureus, S. aureus Gentamycin^R, one line per passage 1-20, read-out: MIC of MM in antibiotic-resistant S. aureus.

Read-outs that look alike come from different tables or passages of the source.

With `C[C@@H]1Cc2ccc3ccccc3c2/C1=C1\c2ccccc2Sc2cc(NCCN(C)C)ccc21` [MM 1, N^1N^1-dimethyl-N^2-(9-(2-methyl-2,3-dihydro-1H-cyclopenta[a]naphthalen-1-ylidene)-9H-thioxanthen-3-yl) ethane-1,2-diamine], the MIC in the assay on C. albicans was ≤ 5 µM; in the assay with P. aeruginosa, 0.625 µM; with S. epidermidis, 0.078 µM; in assay [2] (setting [3]), 4 µM; in assay [2] (setting [4]), 0.125 µM. Also, the “median MIC in Gram-positive versus Gram-negative bacteria” value in assay [1] is on record as “significant differences in the MIC between the two bacterial groups were not observed”. The intracellular tetracycline fluorescence entry with E. coli is on record as “substantial increase in intracellular tetracycline fluorescence”.
With `C[C@@H]1Cc2ccc3ccccc3c2/C1=C1\c2ccccc2Sc2cc(NCCN)ccc21` (racemic) [MM 6, N^1-(9-(2-methyl-2,3-dihydro-1H-cyclopenta[a]naphthalen-1-ylidene)-9H-thioxanthen-3-yl)ethane-1,2-diamine], the MIC in the assay on C. albicans was ≤ 5 µM; in the assay with P. aeruginosa, 0.625 µM; in the assay on S. epidermidis, 0.078 µM; in assay [2] (setting [3]), 0.5 µM; in assay [2] (setting [4]), 0.125 µM. In addition, in assay [1], the “median MIC in Gram-positive versus Gram-negative bacteria” value is recorded as “significant differences in the MIC between the two bacterial groups were not observed”. Also, the intracellular tetracycline fluorescence entry with E. coli is reported as “substantial increase in intracellular tetracycline fluorescence”.

In general, MIC refers to the least concentration at which growth counts as inhibited.

Values taken from US20260355318A1, “MOLECULAR MACHINES FOR TREATMENT OF CANCER, FUNGAL INFECTIONS, OR BACTERIAL INFECTIONS” (priority 2022, published 2026).
